Measured values reported in patent US11945799B2, “4-ethynylpyridine derivatives useful as GCN2 inhibitors” (IP2IPO INNOVATIONS LIMITED, priority 2020, dated 2024).
Where two headings read alike, the source gives them in different places.

What was measured:
[1] = molecular target: T1, full-length human GCN2 enzyme (Homo sapiens, UniProt Q9P2K8); experiment: GCN2 enzyme inhibition, LanthaScreen TR-FRET Kinase Activity assay (10 μM and 300 μM ATP); format: biochemical; settings: mean of replicate assays
T1 construct: purchased Carna Bioscience
T1 sequence (Q9P2K8 whole entry): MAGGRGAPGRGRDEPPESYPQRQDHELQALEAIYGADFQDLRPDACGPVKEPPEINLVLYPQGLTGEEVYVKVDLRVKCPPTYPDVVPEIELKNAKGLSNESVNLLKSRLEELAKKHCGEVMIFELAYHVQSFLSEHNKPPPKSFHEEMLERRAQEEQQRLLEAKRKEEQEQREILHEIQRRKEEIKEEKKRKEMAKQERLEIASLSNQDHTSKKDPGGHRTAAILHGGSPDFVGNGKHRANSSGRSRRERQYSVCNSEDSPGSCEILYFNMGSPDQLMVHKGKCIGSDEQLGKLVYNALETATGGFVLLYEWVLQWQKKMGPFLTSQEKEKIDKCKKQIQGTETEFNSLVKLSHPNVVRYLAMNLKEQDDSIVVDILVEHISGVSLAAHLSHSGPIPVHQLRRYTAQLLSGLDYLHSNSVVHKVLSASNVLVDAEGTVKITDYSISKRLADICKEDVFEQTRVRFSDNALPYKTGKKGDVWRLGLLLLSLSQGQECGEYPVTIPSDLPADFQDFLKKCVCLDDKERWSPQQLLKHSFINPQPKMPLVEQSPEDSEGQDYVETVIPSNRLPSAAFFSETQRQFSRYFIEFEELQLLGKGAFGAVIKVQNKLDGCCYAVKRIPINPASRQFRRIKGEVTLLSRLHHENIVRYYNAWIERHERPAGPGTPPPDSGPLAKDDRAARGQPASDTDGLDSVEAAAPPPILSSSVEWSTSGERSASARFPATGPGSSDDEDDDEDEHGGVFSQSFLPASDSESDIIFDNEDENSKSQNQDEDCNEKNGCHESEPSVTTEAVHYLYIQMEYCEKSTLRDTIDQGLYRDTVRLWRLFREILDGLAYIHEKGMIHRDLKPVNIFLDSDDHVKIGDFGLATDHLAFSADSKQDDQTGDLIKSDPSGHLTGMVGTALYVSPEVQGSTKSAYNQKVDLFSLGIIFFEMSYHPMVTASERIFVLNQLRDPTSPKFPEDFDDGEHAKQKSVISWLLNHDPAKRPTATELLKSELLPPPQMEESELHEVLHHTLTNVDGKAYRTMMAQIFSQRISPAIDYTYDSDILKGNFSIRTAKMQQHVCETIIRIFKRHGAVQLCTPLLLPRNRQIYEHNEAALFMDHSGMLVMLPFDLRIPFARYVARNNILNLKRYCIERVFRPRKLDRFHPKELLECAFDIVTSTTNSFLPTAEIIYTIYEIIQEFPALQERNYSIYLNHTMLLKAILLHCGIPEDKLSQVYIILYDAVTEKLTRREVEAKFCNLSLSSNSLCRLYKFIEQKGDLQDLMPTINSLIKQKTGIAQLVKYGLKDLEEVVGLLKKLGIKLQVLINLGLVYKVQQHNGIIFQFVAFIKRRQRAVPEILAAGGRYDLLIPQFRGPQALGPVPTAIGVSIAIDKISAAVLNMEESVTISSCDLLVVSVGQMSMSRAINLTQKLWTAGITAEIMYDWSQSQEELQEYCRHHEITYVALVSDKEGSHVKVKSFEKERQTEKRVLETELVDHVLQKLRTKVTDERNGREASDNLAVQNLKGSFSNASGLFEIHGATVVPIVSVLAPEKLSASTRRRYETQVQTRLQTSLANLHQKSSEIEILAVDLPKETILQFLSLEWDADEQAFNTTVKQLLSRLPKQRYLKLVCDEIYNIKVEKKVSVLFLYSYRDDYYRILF
Description: Biological and Pharmacokinetic Testing (a) GCN2 Enzyme Inhibition (10 μM and 300 μM Assays) Assay Protocol Overview:
The inhibitory activity of the Example compounds towards GCN2 enzyme was measured according to the description below, using a LanthaScreen TR-FRET (Time Resolved Fluorescence Resonance Energy Transfer) Kinase Activity assay distributed by ThermoFisher Scientific.
The full-length human GCN2 enzyme (UniProt accession number Q9P2K8) was used for all experiments (Carna Bioscience). The TR-FRET pair was composed of GFP-eIF2α and LanthaScreen Terbium-labeled anti-peIF2α (pSer52) Antibody.
Each example compound was dissolved in DMSO (0.15 mM) and dispensed in a 384-well plate by a D300 dispenser (Tecan) to a final concentration range 3000-0.13 nM using the logarithmic dilution mode in 2 replicates. Full inhibition (3000 nM commercial reference inhibitor) and DMSO vehicle control wells were also included on the same plate. All volumes were normalized to the final DMSO concentration of 2% of the reaction volume. Next, 5 μL of H2O was added to each well of the plate.
The enzyme mixture was prepared to obtain the following concentrations: • GCN2—30 nM • unloaded tRNA—0.3 nM • HEPES (pH=7.0)—100 mM • MgCl2—20 mM; MnCl2—10 mM
The mixture was applied by adding 5 μL to each well of the plate. The enzyme and the tested compound were then incubated at room temperature for 20 min while shaking at 450 rpm.
The substrate mixture was prepared to obtain the following concentrations: • GFP-eIF2α—240 nM • ATP—900 μM or 30 μM • HEPES (pH=7.0)—50 mM • MgCl2—10 mM • MnCl2—5 mM.
The mixture was applied by adding 5 μL to each well of the plate. Thus, the final concentrations of the 15 μL reaction mixture were as follows: • GCN2—10 nM • unloaded tRNA—0.1 nM • GFP-eIF2α—80 nM • ATP—300 μM or 10 μM • HEPES (1 M, pH=7.0)—50 mM • MgCl2—10 mM • MnCl2—5 mM.
The reaction was allowed to proceed at room temperature for 30 min while shaking at 450 rpm.
The antibody mixture was prepared to obtain the following concentrations: • Na2EDTA·2H2O—40 mM, in TR-FRET Dilution Buffer (Life technologies) • Tb—anti-peIF2a antibodies—4 nM.
The mixture was applied by adding 15 μL to each well. The plate was then incubated at room temperature for 60 min while shaking at 450 rpm and then read using Tecan Spark reader using specific TR-FRET filters.
The analysis of the GFP/Tb fluorescence results was conducted with GraphPad Prism to determine IC50 for each of the example compounds using 4-parameter model: log(inhibitor) vs. response-variable slope. IC50 and K, values were calculated in the usual way. The assay was carried out between 1 and 15 times. The results in the table below are the mean results from replicate assays for the compound in question, where applicable.

[2] = Kinetic solubility in PBS buffer pH 7.4; format: physicochemical; settings: aqueous buffer, kinetic from dmso stock; PBS buffer pH 7.4, 90 minutes at room temperature, from 10 mM DMSO stock
Description: The kinetic solubility assay investigates a solubility based on the amount of material which remains in solution after a precipitation process. […] Assay is performed using Multiscreen Vacuum Manifold. A buffer of interest (in standard protocol PBS buffer at pH=7.4 is used) is spiked with stock solution and incubated for 90 minutes at room temperature. After that time solution/suspension is filtrated. The concentration of each compound is determined on the base of prepared calibration curve using UV-VIS spectrophotometry method. The assay is made in triplicate.
Buffer of interest: 0.24 g of KH2PO4, 1.44 g of Na2HPO4, 0.2 g of KCl and 8 g NaCl and dissolve in 1 L distilled H2O; adjust pH to appropriate value (pH 7.4). 190 μl of buffer of interest was dispensed into the wells of a 96 well filter plate, followed by 10 μl of compound (10 mM stock solution in DMSO). The plate was shaken gently at room temperature for 90 minutes at 500 rpm using a BioSan, Plate Shaker-Thermostat, PST-60 HL-4. After 90 minutes, the plate was filtered using a vacuum manifold and vacuum pump. 100 μl of each filtrate and 100 μl acetonitrile was transferred to a 96 well UV-visible light transparent plate and the UV-visible absorption spectrum was measured using a Biotek Synergy 2 multiplate reader from 250-500 nm, interval range 10 nm. The amount of test compound was calculated using a calibration curve prepared by serial dilution of compounds in equivalent amounts of DMSO and acetonitrile.

[3] = read-out: GCN2 IC50 (nM) 10 uM ATP, 10 uM ATP
[4] = read-out: GCN2 IC50 (nM) 300 uM ATP, 300 uM ATP
[5] = read-out: GCN2 Ki (nM) 10 uM ATP, 10 uM ATP
[6] = read-out: GCN2 Ki (nM) 300 uM ATP, 300 uM ATP

Row | Structure (SMILES) | IC50 [1, 3] | IC50 [1, 4] | Ki [1, 5] | Ki [1, 6] | solubility kinetic at 90 min [2]
1 | COc1ncc(Cl)cc1S(=O)(=O)Nc1nccc(C#Cc2cnc(N)nc2)c1Cl [Example 2, N-{4-[2-(2-aminopyrimidin-5-yl)ethynyl]-3-chloropyridin-2-yl}-5-chloro-2-methoxypyridine-3-sulfonamide] | 8.1 nM | 79 nM | 2.6 nM | 1.2 nM | 226 µg/mL
2 | COc1ncc(Cl)cc1S(=O)(=O)Nc1nccc(C#Cc2cnc(N)c3ncccc23)c1F [Example 4, N-{4-[2-(8-amino-1,7-naphthyridin-5-yl)ethynyl]-3-fluoropyridin-2-yl}-5-chloro-2-methoxypyridine-3-sulfonamide] | 2.9 nM | 17.6 nM | 0.9 nM | 0.3 nM | 29.5 µg/mL
3 | COc1ncc(Cl)cc1S(=O)(=O)Nc1nccc(C#Cc2cncc3nccnc23)c1F [Example 5, 5-chloro-N-{4-[2-(pyrido[3,4-b]pyrazin-8-yl)ethynyl]-3-fluoropyridin-2-yl}-2-methoxypyridine-3-sulfonamide] | 7.8 nM | 186 nM | 2.5 nM | 2.8 nM | 223 µg/mL
4 | COc1ncc(Cl)cc1S(=O)(=O)Nc1nccc(C#Cc2cncc3cccnc23)c1F [Example 6, 5-chloro-N-{4-[2-(1,6-naphthyridin-8-yl)ethynyl]-3-fluoropyridin-2-yl}-2-methoxypyridine-3-sulfonamide] | 6.7 nM | 49.3 nM | 2.1 nM | 0.8 nM | 40.3 µg/mL
5 | COc1ncc(Cl)cc1S(=O)(=O)Nc1nccc(C#Cc2cnn3c(N)ccnc23)c1F [Example 7, N-{4-[2-(7-aminopyrazolo[1,5-a]pyrimidin-3-yl)ethynyl]-3-fluoropyridin-2-yl}-5-chloro-2-methoxypyridine-3-sulfonamide] | 7.9 nM | 105 nM | 2.5 nM | 1.6 nM | 216 µg/mL
6 | COc1ncc(Cl)cc1S(=O)(=O)Nc1nccc(C#Cc2cnc3c(N)cccn23)c1F [Example 8, N-{4-[2-(8-aminoimidazo[1,2-a]pyridin-3-yl)ethynyl]-3-fluoropyridin-2-yl}-5-chloro-2-methoxypyridine-3-sulfonamide] | 9.9 nM | 335 nM | 3.1 nM | 5.1 nM | 214 µg/mL
7 | COc1ncc(Cl)cc1S(=O)(=O)Nc1nccc(C#Cc2cnc3ccccc3n2)c1F [Example 9, 5-chloro N-{4-[2-(quinoxalin-2-yl)ethynyl]-3-fluoropyridin-2-yl}-2-methoxypyridine-3-sulfonamide] | 7.5 nM | 112 nM | 2.4 nM | 1.7 nM | 134 µg/mL
8 | COc1ncc(Cl)cc1S(=O)(=O)Nc1ncc(F)c(C#Cc2cnc(N)nc2)c1F [Example 10, N-{4-[2-(2-aminopyrimidin-5-yl)ethynyl]-3,5-difluoropyridin-2-yl}-5-chloro-2-methoxypyridine-3-sulfonamide] |  |  |  |  | 138 µg/mL
9 | COc1ncc(Cl)cc1S(=O)(=O)Nc1nccc(C#Cc2cnc3c(N)nccn23)c1F [Example 11, N-{4-[2-(8-aminoimidazo[1,2-a]pyrazin-3-yl)ethynyl]-3-fluoropyridin-2-yl}-5-chloro-2-methoxypyridine-3-sulfonamide] | 2.3 nM | 71.8 nM | 0.7 nM | 1.1 nM | 216 µg/mL
10 | COc1ccc(Cl)cc1S(=O)(=O)Nc1nccc(C#Cc2cnc3[nH]ncc3c2)c1F [Example 12, 5-chloro-N-[3-fluoro-4-(2-{1H-pyrazolo[3,4-b]pyridin-5-yl}ethynyl)pyridin-2-yl]-2-methoxybenzene-1-sulfonamide] |  | 257 nM |  | 3.9 nM | 161 µg/mL
11 | COc1ccc(Cl)cc1S(=O)(=O)Nc1nccc(C#Cc2cnc(N)nc2)c1F [Example 13, N-{4-[2-(2-aminopyrimidin-5-yl)ethynyl]-3-fluoropyridin-2-yl}-5-chloro-2-methoxybenzene-1-sulfonamide] |  | 611 nM |  | 9.3 nM | 109 µg/mL
12 | O=S(=O)(Nc1nccc(C#Cc2cnc3[nH]ncc3c2)c1F)c1cc(Cl)ccc1Cl [Example 14, 2,5-dichloro-N-[3-fluoro-4-(2-{1H-pyrazolo[3,4-b]pyridin-5-yl}ethynyl)pyridin-2-yl]benzene-1-sulfonamide] |  | 236 nM |  | 3.6 nM | 24.7 µg/mL
13 | Nc1ncc(C#Cc2ccnc(NS(=O)(=O)c3cc(Cl)ccc3Cl)c2F)cn1 [Example 15, N-{4-[2-(2-aminopyrimidin-5-yl)ethynyl]-3-fluoropyridin-2-yl}-2,5-dichlorobenzene-1-sulfonamide] |  | 465 nM |  | 7.1 nM | 224 µg/mL
14 | Nc1ncc(C#Cc2ccnc(NS(=O)(=O)c3cc(Cl)cc(CO)c3Cl)c2F)cn1 [Example 16, N-{4-[2-(2-aminopyrimidin-5-yl)ethynyl]-3-fluoropyridin-2-yl}-2,5-dichloro-3-(hydroxymethyl)benzene-1-sulfonamide] |  | 111 nM |  | 1.7 nM | 218 µg/mL
15 | O=S(=O)(Nc1nccc(C#Cc2cnc3[nH]ncc3c2)c1F)c1cc(Cl)cc(CO)c1Cl [Example 17, 2,5-dichloro-N-[3-fluoro-4-(2-{1H-pyrazolo[3,4-b]pyridin-5-yl}ethynyl)pyridin-2-yl]-3-(hydroxymethyl)benzene-1-sulfonamide] |  | 59 nM |  | 0.9 nM | 250 µg/mL
16 | COc1ncc(Cl)cc1S(=O)(=O)Nc1nccc(C#Cc2cncc3ncn(C)c23)c1F [Example 18, 5-chloro-N-[3-fluoro-4-(2-{1-methyl-1H-imidazo[4,5-c]pyridin-7-yl}ethynyl)pyridin-2-yl]-2-methoxypyridine-3-sulfonamide] | 11.3 nM | 365 nM | 3.6 nM | 5.6 nM | 24.3 µg/mL
17 | COc1ncc(Cl)cc1S(=O)(=O)Nc1nccc(C#Cc2cncc3ncsc23)c1F [Example 19, 5-chloro-N-[3-fluoro-4-(2-{[1,3]thiazolo[4,5-c]pyridin-7-yl}ethynyl)pyridin-2-yl]-2-methoxypyridine-3-sulfonamide] | 12 nM | 384 nM | 3.8 nM | 5.9 nM | 103 µg/mL
18 | COc1nc(N)ncc1C#Cc1ccnc(NS(=O)(=O)c2cc(Cl)cnc2OC)c1F [Example 35, N-{4-[2-(2-amino-4-methoxypyrimidin-5-yl)ethynyl]-3-fluoropyridin-2-yl}-5-chloro-2-methoxypyridine-3-sulfonamide] |  | 328 nM |  | 5 nM | 
